{"source": "patent US6960456B1", "about": "“Method for preparing conjugated linoleic acid” (Valio Ltd., priority 1999, dated 2005)", "key": {"[1]": {"system": "mammary, stomach and colon cancer", "conditions": "CLA-containing diet, compared with the reference group; cited from earlier work"}, "cancer cells": {"system": "cancer cells", "conditions": "tissue cultures of human cells; cited from earlier work"}, "[2]": {"system": "high density lipoprotein (HDL)", "conditions": "rabbit, in vivo; cited from earlier work"}, "fatty tissues": {"system": "fatty tissues", "conditions": "mouse, in vivo; cited from earlier work"}, "[3]": {"system": "Propionibacterium freudenreichii ssp. shermanii JS (PJS)", "assay": "Growth of PJS strain in MRS medium containing linoleic acid (turbidity, Klett meter)", "format": "cell-based", "conditions": "for Growth (cell density of the culture as turbidity, Klett meter): 600 μg/ml linoleic acid, 30° C.", "protocol": "(§1) As controls were used the same medium without addition (positive growth control) and a medium to which only detergent was added. For the test, the propionic acid bacterium strains Propionibacterium freudenreichii ssp. shermanii JS (PJS), DSM 7067, and P. freudenreichii ssp. freudenreichii 131 ([…]) were first cultivated in MRS broths with • 1) no addition • 2) 600 μg/ml linoleic acid • 3) addition of 600 μg/ml linoleic acid from a stock solution containing 5 mg/ml linoleic acid and 1% of Tween 80 preparation in an aqueous solution (final content of Tween […]) • 4) addition of 0.9% of Kotilen and 600 μg/ml linoleic acid micellized according to Example 1 • 5) addition of 0.9% of Kotilen only (not linoleic acid) Each bacterium strain was cultivated in the culture medium twice at 30° C. for 72 h, whereafter each test broth was inoculated with 1% of fresh culture. The test cultures were monitored at 30° C. for 4 days by determining the cell density of the culture as turbidity with a Klett meter. At the end of cultivation (96 h), the amount of formed CLA was determined by gas chromatography, the c9,t11 isomer separately and the other isomers together."}, "[4]": {"system": "P. freudenreichii ssp. freudenreichii 131 (P131)", "assay": "Growth of P131 strain in MRS medium containing linoleic acid (turbidity, Klett meter)", "format": "cell-based, Propionibacterium freudenreichii ssp. freudenreichii", "conditions": "for Growth (cell density of the culture as turbidity, Klett meter): 600 μg/ml linoleic acid, 30° C.", "protocol": "as §1"}, "PJS cells": {"system": "PJS cells", "assay": "Viable cell concentration in pH-adjusted fermentor culturing of PJS cells with micellized linoleic acid", "format": "cell-based, Propionibacterium freudenreichii ssp. shermanii", "protocol": "The most efficient way to cultivate propionic acid bacteria on an industrial scale is to do it in a fermentor where the pH of the medium can be maintained optimal for cellular growth. A production process of conjugated linoleic acid by means of growing PJS cells was examined in fermentor cultures the solution volume being 2 liters. The whey permeate broth of Example 2 was used as growth medium. The growth broth contained micellized linoleic acid 400, 600, 1000 or 1400 μg/ml and Kotilen detergent 0.6, 0.9 or 1.5%, respectively. During the cultivation, the pH of the growth medium was maintained at 6.3 with linoleic acid concentrations of 400, 600 and 1000 μg/ml and at 6.5 with linoleic acid concentration of 1400 μg/ml by means of an automatic addition of ammonium solution. The cultivation temperature was 30° C. and the mixing rate was 100 rpm. The concentration of viable propionic acid bacteria cells was determined in buffered sodium lactate agar and the agar dishes were incubated at 30° C. anaerobically for 5 to 7 days. Table 3 compares the CLA production process in a fermentor, with the linoleic acid content in the medium of 400, 600 and 1000 μg/ml, after 94 hour cultivation, and that of 1400 μg/ml, after 108 and 132 hour cultivation."}, "breast cancer": {"system": "breast cancer", "conditions": "cited from earlier work"}, "propionic acid bacteria": {"system": "propionic acid bacteria", "conditions": "even in relatively low concentrations; cited from earlier work"}}}
{"molecule": "conjugated linoleic acid [CLA]", "values": [{"measurement": "number of mammary, stomach and colon cancer incidences", "setting": "[1]", "value": "reduced"}, {"measurement": "development of cancer cells", "setting": "cancer cells", "value": "capable of inhibiting development of cancer cells"}, {"measurement": "amount of the good high density lipoprotein (HDL)", "setting": "[2]", "value": "does not reduce"}, {"measurement": "effect on fatty tissues", "setting": "fatty tissues", "value": "split fatty tissues"}]}
{"molecule": "CCCCC/C=C\\C/C=C\\CCCCCCCC(=O)O", "note": "[LA, cis-9,trans-12 octadecadienoic acid]", "values": [{"measurement": "Effect on growth as compared with the control (in words)", "setting": "[3]; 600 μg/ml", "value": "inhibited the growth"}, {"measurement": "Growth (cell density of the culture as turbidity, Klett meter)", "setting": "[3]; 0 h", "value": 78}, {"measurement": "Growth (cell density of the culture as turbidity, Klett meter)", "setting": "[3]; 24 h", "value": 84}, {"measurement": "Growth (cell density of the culture as turbidity, Klett meter)", "setting": "[3]; 48 h", "value": 96}, {"measurement": "Growth (cell density of the culture as turbidity, Klett meter)", "setting": "[3]; 72 h", "value": 106}, {"measurement": "Growth (cell density of the culture as turbidity, Klett meter)", "setting": "[3]; 96 h", "value": 110}, {"measurement": "Effect on growth as compared with the control (in words)", "setting": "[4]; 600 μg/ml", "value": "inhibited the growth"}, {"measurement": "Growth (cell density of the culture as turbidity, Klett meter)", "setting": "[4]; 0 h", "value": 80}, {"measurement": "Growth (cell density of the culture as turbidity, Klett meter)", "setting": "[4]; 24 h", "value": 90}, {"measurement": "Growth (cell density of the culture as turbidity, Klett meter)", "setting": "[4]; 48 h", "value": 97}, {"measurement": "Growth (cell density of the culture as turbidity, Klett meter)", "setting": "[4]; 72 h", "value": 107}, {"measurement": "Growth (cell density of the culture as turbidity, Klett meter)", "setting": "[4]; 96 h", "value": 115}, {"measurement": "cell concentration (cfu/ml)", "setting": "PJS cells; micellized LA 400 μg/ml, deterg. (Kotilen) 0.6%, 94 h, pH 6.3, 30° C.", "value": "1.3 × 10^10 cfu/ml"}, {"measurement": "cell concentration (cfu/ml)", "setting": "PJS cells; micellized LA 600 μg/ml, deterg. (Kotilen) 0.9%, 94 h, pH 6.3, 30° C.", "value": "1.2 × 10^10 cfu/ml"}, {"measurement": "cell concentration (cfu/ml)", "setting": "PJS cells; micellized LA 1000 μg/ml, deterg. (Kotilen) 1.5%, 94 h, pH 6.3, 30° C.", "value": "1.4 × 10^10 cfu/ml"}, {"measurement": "cell concentration (cfu/ml)", "setting": "PJS cells; micellized LA 1400 μg/ml, deterg. (Kotilen) 1.5%, 108 h, pH 6.5, 30° C.", "value": "2.4 × 10^9 cfu/ml"}, {"measurement": "cell concentration (cfu/ml)", "setting": "PJS cells; micellized LA 1400 μg/ml, deterg. (Kotilen) 1.5%, 132 h, pH 6.5, 30° C.", "value": "1.3 × 10^10 cfu/ml"}, {"measurement": "effect on breast cancer", "setting": "breast cancer", "value": "stimulating effect"}, {"measurement": "effect on the growth of propionic acid bacteria", "setting": "propionic acid bacteria", "value": "inhibitory effect"}]}
